The values that follow are results of earlier work, collected in patent US20160317662A1, “STABLE ORAL PHARMACEUTICAL COMPOSITION” (H[…].A., priority 2013, published 2016).

The conditions of the data set: aqueous solutions; state of the art.

As for `COc1ccc2c3c1O[C@H]1[C@@H](O)C=C[C@H]4C(C2)N(C)CC[C@@]341` [codeine, codein phosphate hemihydrate], the “pH around which solutions are relatively stable” value is recorded as around 3.5.
